Test results as given in patent US20220288075A1, “METHOD AND COMPOSITION FOR TREATING PAIN” (ACADEMIA SINICA, priority 2019, published 2022).

Experiments:
pERK = pERK expression of L4 DRG neurons after intramuscular LPC16:0 injection; format: in vivo, mice
Protocol: (§1) The chronic pain model was based on the repeated acid injection model protocol by Sluka et al.^44, and LPC16:0 was used for pain induction to replace acidic saline injection. Mice received in the left gastrocnemius muscle two intramuscular injections (1 day apart) of 10 μL neutral saline solution (pH 7.4; buffered with HEPES) containing vehicle (0.96% ethanol) or LPC16:0 (4.8 nmol; Avanti Polar Lipids Inc)^30. In the experiment of pharmacological inhibition of ASIC3, APETx2 (50 pmole; Alomone, Israel), a selective ASIC3 antagonist, was co-injected with LPC16:0.
Immunofluorescence staining. Animals were euthanized with urethane ([…], i.p.) and perfused with 4% paraformaldehyde (PFA) at P0. L4 dorsal root ganglia (DRG) were extracted and immediately post-fixed in 4% PFA for 60 min, and then replaced with 30% sucrose overnight. DRG were embedded in OCT compound and sectioned (12 μm) with a Leica cryostat. […] Images were acquired and quantified under a Carl Zeiss fluorescence microscope with a 10× objective lens. All images from the same experiment were acquired with the same settings, including fluorescence intensity, acquisition time, and image resolution. The immunoreactivity of pERK and the overlap between pERK and neuron markers (SP, CGRP, IB4 or N52) were assessed using Fiji (ImageJ, NIH) software, with the experimenter blinded to treatment and/or genotype. […]

WT mice = test: LPC16:0 / lipid injection in wild-type mice, mechanical hypersensitivity by von Frey test; format: in vivo; details: for long-lasting hyperalgesia / priming-like effect after repeated intramuscular injection: two i.m. injections, 4.8 nmol, 10C
[1] = tested on: mice with repeated LPC16:0 injection; test: Repeated LPC16:0 injection model, drug effects by von Frey test; format: in vivo; details: for analgesic effect in repeated LPC16:0 injection model (von Frey): intraperitoneal administration, FIG. 10E
Protocol: as §1
(§2) Animals were placed on an elevated mesh platform, and a 0.2-mN von Frey filament was applied to the plantar surface of both hind paws. A positive response was defined as lifting, shaking, guarding, or licking paws when the stimulus was applied. For each paw, the filament was applied 5 times at 30-sec intervals.
Analgesic drugs: Pregabalin (0.3, 1, 3 or 10 mg/kg bodyweight, i.p.; Toronto Research Chemicals), morphine (0.3, 1, 3 or 10 mg/kg bodyweight, i.p.), diclofenac (1, 3 or 10 mg/kg bodyweight, i.p.; Sigma-Aldrich) or vehicle (0.9% saline) was administered, and the effect of each drug was evaluated by testing 6 mice. Sensory testing was carried out at 30 min and 1, 3 and 24 hours after injection of vehicle or drugs, with the experimenter blinded to the dose of test drugs. […] The 3Rs stand for Replace, Reduce, Refine and represent a responsible approach to animal testing. The goal is to replace animal experiments whenever possible. In addition, the aim is to keep the number of animal experiments as low as possible and to only use the necessary number of animals. Lastly, it is vital to ensure that the distress inflicted upon the animals is as low as possible. Therefore, all the pharmacological studies were conducted on post-RISS day 1 and day 4 (3 days apart, within 1 week after RISS). Mice of post-stress day 1 and day 4 were assigned randomly but equally to each tested dosage for counterbalance. During testing, the experimenter was blind to the individual treatment assignments.
Intrathecal injection was conducted through transcutaneous injection with a 30-gauge needle at the L5-6 dorsal spinal process under anesthesia of isoflurane (1.5%).

RISS mice = test: RISS (repeated and intermittent sound stress) model, sensory testing (von Frey, muscle withdrawal threshold, Hargreaves); format: in vivo; details: i.p. injection, post-RISS day 1 and 4; FIG. 1G
Text: Sound stressors were applied as described^14, 43 with modification. Mice were placed (3 per cage) in a 20×30×15 cm bedding cage, which was kept 25 cm below a speaker, inside a 40×50×35 cm sound-insulated box. A speaker emitted pure tones at 5 frequencies (5, 11, 13, 15 and 19 kHz) with random amplitudes varied over time for each frequency (0, 20, 60, 90, and 100 dB sound). Each tone stimulus lasted for 5 or 10 sec in random order, and mice were stimulated continuously without interval. The sound stressors continued for 30 min as a set. In the original SS (sound stress) protocol, a set of 30-min stimuli was given once a day on days 1, 3, and 4 (FIG. 1A)^14. The RISS model intensified the stress protocol by increasing the stimulus frequency: a set of sound stimulus was repeated every 3 hours for 6 times overnight (from 16:00 to 10:00), followed by resting silence for 6 hours (from 10:00 to 16:00). The procedure was repeated on days 1, 3, and 4 as for the SS protocol. The control groups were placed in similar chambers for 4 days without stress exposure. Both groups of mice had access to food and water freely during the stress period. After the stimulus procedure, mice were returned to their original home cages in the animal care facility. In both the SS and RISS protocols, the day after completing the stress stimuli is called P0; the post-stress day 1, P1; and so on. In the experimental design of the […] single-day stimuli of intermittent SS (SISS), the day after SISS is called P′0; the post-stress day 1, P′1; and so on.
as §2
Mice were placed individually in Acrylic cubicles mounted on a glass surface maintained at 30° C. The test was performed after acclimatization. The thermal stimulus of the radiant heat was then applied to the plantar surface of each hind paw. Each mouse was tested in three sequential trials with an interval of 2-3 min. The assay cutoff was set at 30 sec to prevent tissue damage. Paw withdrawal latencies were calculated as the mean of three measures.
Muscle withdrawal thresholds were evaluated as described^46. […]
Analgesic drugs: Pregabalin (0.3, 1, 3 or 10 mg/kg bodyweight, i.p.; Toronto Research Chemicals), morphine (0.3, 1, 3 or 10 mg/kg bodyweight, i.p.), diclofenac (1, 3 or 10 mg/kg bodyweight, i.p.; Sigma-Aldrich) or vehicle (0.9% saline) was administered, and the effect of each drug was evaluated by testing 6 mice. […]

Molecule | long-lasting hyperalgesia / priming-like effect after repeated intramuscular injection (WT mice; FIG. 3J) | analgesic effect in repeated LPC16:0 injection model (von Frey) [1] | analgesic effect on RISS-induced hyperalgesia (mechanical, muscle, thermal) (RISS mice) | also measured
CCCCCCCCCCCCCCCC(=O)OC[C@@H](O)COP(=O)([O-])OCC[N+](C)(C)C [LPC16:0, lysophosphatidylcholine (LPC) 16:0] | induced long-lasting hyperalgesic changes | – | – | pERK expression in L4 DRG neurons after LPC injection vs vehicle (pERK; i.m. injection, FIG. 10A, 10B): increased; hyperalgesic responses after intramuscular injection, dose dependence (WT mice; 4.8, 1.6 and 0.48 nmol i.m., FIG. 3I): dose-dependently evoked hyperalgesic responses; hyperalgesia after single intramuscular injection (WT mice; single i.m. injection, FIG. 3J): induced transient bilateral hyperalgesia; hyperalgesia after repeated intraplantar injection (WT mice; two intraplantar injections, 4.8 nmole, FIG. 3J right): only induced transient hyperalgesia
CCCCCCCCCCCCCCCCCC(=O)OC[C@@H](O)COP(=O)([O-])OCC[N+](C)(C)C [LPC18:0] | not observed | – | – | –
CCCCCCCCCCCCC/C=C/[C@@H](O)[C@H](COP(=O)([O-])OCC[N+](C)(C)C)NC(=O)CCCCCCCCCCCCCCCCC [SM(d18:1/18:0)] | not observed | – | – | –
N#CC(=C(/N)Sc1ccccc1N)/C(C#N)=C(\N)Sc1ccccc1N [U0126] | – | – | – | LPC16:0-induced acute hyperalgesia ([1]; mouse, in vivo): prevented; chronic hyperalgesia induced by the second LPC16:0 injection ([1]; mouse, in vivo): impeded the development of chronic hyperalgesia
O=C(O)Cc1ccccc1Nc1c(Cl)cccc1Cl [diclofenac] | – | not | no significant analgesic effects | –
CN1CC[C@]23c4c5ccc(O)c4O[C@H]2[C@@H](O)C=C[C@H]3[C@H]1C5 [morphine] | – | not | no significant analgesic effects | –
CC(C)C[C@H](CN)CC(=O)O [pregabalin] | – | responded | dose-dependently reversed hyperalgesia | –
APETx2 | – | – | – | LPC16:0 injection-induced pERK expression in DRG neurons (pERK; APETx2 co-injected with LPC16:0, FIG. 10F, 10G): reduced; chronic hypersensitivity after repeated LPC16:0 injection ([1]; APETx2 50 pmole co-injected i.m. with LPC16:0, FIG. 3K left): significantly reduced; transient (acute) hyperalgesia after LPC16:0 injection ([1]; APETx2 co-injected i.m. with LPC16:0, vs vehicle, FIG. 3K left): transient hyperalgesia was observed
